Some test systems named below: HCT-15; TK-10; M14; NCI-H23; SF-268; SK-MEL-5; MOLT-4; CCRF-CEM; SK-MEL-2; M19-MEL; HL-60; SK-MEL-28; SNB-19; NCI-H226; A549; SW-620; OVCAR-3.
Assay in all cases: NCI anticancer screen, dose series, 48 h

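How tested: cells in 96-well plates exposed to compound for 48 hours at five concentrations. Here, GI50 denotes the concentration required for 50% inhibition of growth.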 Active and inactive are the calls of the source. Rule as the data show it: active = GI50 up to about 1.1 µM and inactive = higher.

As to `CCOc1ccc(C(CN2CCOCC2)C(C)=O)cc1OC` (centres undefined), the GI50 in the assay on HCT-15 was 10 µM; in the assay on TK-10 it was 17.1 µM (inactive); in the assay on M14, 17.5 µM (inactive); with NCI-H23 it was 18.6 µM (inactive); with SF-268 it was 19.7 µM (inactive); in the assay with SK-MEL-5, 20.1 µM (inactive). Further, the GI50 with MOLT-4 was 21.9 µM (inactive); with CCRF-CEM it was 9.4 µM (inactive); with SK-MEL-2, 14.3 µM (inactive); in the assay on M19-MEL, 18.9 µM (inactive); in the assay with HL-60 it was 3.78 µM (inactive); in the assay on SK-MEL-28, 19.1 µM (inactive). Besides, the GI50 was 17.1 µM (inactive) in the assay on SNB-19, 17.7 µM (inactive) with NCI-H226, 24.6 µM (inactive) in the assay on A549 and 16.4 µM (inactive) with SW-620.
For the molecule `CCCCCCC(O)CC[C@H]1CCC[C@@H](C)N1` (some centres undefined), the GI50 is over 31.6 µM with HCT-15; > 100 µM (inactive) with TK-10; > 100 µM (inactive) with M14; > 10 µM (inactive) in the assay on NCI-H23; > 31.6 µM (inactive) in the assay with SF-268; 55 µM (inactive) in the assay on SK-MEL-5. The GI50 in the assay with MOLT-4 is > 100 µM (inactive); with CCRF-CEM, > 100 µM (inactive); with SK-MEL-2, > 10 µM (inactive); in the assay with M19-MEL it was > 31.6 µM (inactive); in the assay on HL-60 it was > 100 µM (inactive); in the assay on SK-MEL-28, > 31.6 µM (inactive). For the same molecule, the GI50 is > 10 µM (inactive) in the assay with SNB-19; > 10 µM (inactive) in the assay with OVCAR-3; > 100 µM (inactive) with NCI-H226; > 100 µM (inactive) with A549; > 100 µM (inactive) in the assay on SW-620.
As to `CC(=O)Nc1ccc(C(=O)N2N=C(C)/C(=C\c3c(O)ccc4ccccc34)C2=O)cc1`, the GI50 in the assay on HCT-15 is 18.4 µM; with TK-10, 0.1 µM (active); in the assay with M14 it was 85.1 µM (inactive); in the assay on NCI-H23, > 100 µM (inactive); in the assay with SF-268, 56 µM (inactive); in the assay on SK-MEL-5, 35.4 µM (inactive). In addition, the GI50 is 31.7 µM (inactive) with MOLT-4; 26.8 µM (inactive) with CCRF-CEM; 29.8 µM (inactive) with SK-MEL-2; 45.6 µM (inactive) in the assay with M19-MEL; 57.4 µM (inactive) in the assay on HL-60; 57.8 µM (inactive) in the assay on SK-MEL-28. Moreover, the GI50 in the assay on SNB-19 was > 100 µM (inactive); with OVCAR-3, 91.8 µM (inactive); in the assay with NCI-H226, 39.5 µM (inactive); in the assay with A549, > 100 µM (inactive); with SW-620 it was 75.2 µM (inactive).
Turning to `CC1=NN(C(=O)Cc2ccccc2)C(=O)/C1=C\c1ccccc1O`, the GI50 in the assay on HCT-15 is over 100 µM; in the assay on TK-10, > 100 µM (inactive); in the assay with M14, > 100 µM (inactive); in the assay with NCI-H23, > 100 µM (inactive); in the assay with SF-268 it was > 100 µM (inactive); in the assay with SK-MEL-5, > 100 µM (inactive). Further, the GI50 in the assay on MOLT-4, with CCRF-CEM, in the assay with SK-MEL-2, with M19-MEL, in the assay on HL-60 and with SK-MEL-28 was > 100 µM (inactive) throughout. The GI50 in the assay with SNB-19, with OVCAR-3, in the assay on NCI-H226, with A549 and in the assay on SW-620 was > 100 µM (inactive) each time.
On to `CN1CCCc2nc3ccccc3n2C1`, for which the GI50 is over 100 µM in the assay with HCT-15; > 100 µM (inactive) with TK-10; > 100 µM (inactive) in the assay with M14; > 100 µM (inactive) with NCI-H23; > 100 µM (inactive) in the assay with SF-268; > 100 µM (inactive) in the assay with SK-MEL-5. Moreover, the GI50 in the assay with MOLT-4 is > 100 µM (inactive); in the assay with CCRF-CEM, 88.3 µM (inactive); in the assay with SK-MEL-2, > 100 µM (inactive); with M19-MEL it was > 100 µM (inactive); in the assay with HL-60, > 100 µM (inactive); with SK-MEL-28 it was > 100 µM (inactive). The GI50 in the assay on SNB-19, with OVCAR-3, in the assay on NCI-H226, in the assay on A549 and in the assay with SW-620 was > 100 µM (inactive) throughout.
On to `Cc1cccc(C)c1NC(=O)C(=O)C(C#N)c1ccccc1` (centres undefined), for which the GI50 with HCT-15 is over 100 µM; in the assay on TK-10, > 100 µM (inactive); in the assay with M14, > 100 µM (inactive); in the assay on NCI-H23, > 100 µM (inactive); with SF-268, > 100 µM (inactive); in the assay with SK-MEL-5, > 100 µM (inactive). Moreover, the GI50 in the assay with MOLT-4, in the assay with CCRF-CEM, in the assay on SK-MEL-2, in the assay on M19-MEL, in the assay with HL-60 and with SK-MEL-28 was > 100 µM (inactive) in each case. Moreover, the GI50 in the assay with SNB-19, in the assay with OVCAR-3, with NCI-H226, in the assay with A549 and with SW-620 was > 100 µM (inactive) in each case.
Consider `COC(=O)C1CCc2nnc(-c3ccccc3)n21` (centres undefined), for which the GI50 is over 100 µM in the assay on HCT-15; > 100 µM (inactive) with TK-10; > 100 µM (inactive) in the assay on M14; > 100 µM (inactive) with NCI-H23; > 100 µM (inactive) in the assay on SF-268; > 100 µM (inactive) in the assay on SK-MEL-5. Besides, the GI50 in the assay on MOLT-4, with CCRF-CEM, with SK-MEL-2, with M19-MEL, with HL-60 and in the assay with SK-MEL-28 was > 100 µM (inactive) in each case. Further, the GI50 with SNB-19, in the assay with OVCAR-3, in the assay with NCI-H226, in the assay with A549 and with SW-620 was > 100 µM (inactive) throughout.
In the case of `CN1c2ccccc2N(C(=O)c2ccc(Cl)cc2)C(CC(=O)O)c2cccn21` (centres undefined), the GI50 is over 100 µM in the assay with HCT-15; > 100 µM (inactive) in the assay with TK-10; > 100 µM (inactive) in the assay with M14; > 100 µM (inactive) in the assay with NCI-H23; > 100 µM (inactive) in the assay with SF-268; > 100 µM (inactive) in the assay with SK-MEL-5. The GI50 in the assay on MOLT-4, with CCRF-CEM, in the assay on SK-MEL-2, with M19-MEL, in the assay with HL-60 and in the assay on SK-MEL-28 was > 100 µM (inactive) throughout. Also, the GI50 in the assay on SNB-19, in the assay on OVCAR-3, in the assay with NCI-H226, in the assay with A549 and in the assay on SW-620 was > 100 µM (inactive) in each case.
On to `O=c1nc(/C=C/c2ccccc2Cl)cc2n1CCN2CCO`, for which the GI50 was over 100 µM in the assay on HCT-15; > 100 µM (inactive) in the assay with TK-10; > 100 µM (inactive) with M14; 67.6 µM (inactive) with SF-268; 75.9 µM (inactive) in the assay with MOLT-4; 50.4 µM (inactive) in the assay on CCRF-CEM. Also, the GI50 in the assay with SK-MEL-2 was 72.3 µM (inactive); in the assay on M19-MEL, > 100 µM (inactive); in the assay with HL-60 it was > 100 µM (inactive); in the assay on SK-MEL-28, > 100 µM (inactive); in the assay on SNB-19, < 0.01 µM (active); with OVCAR-3 it was 28.6 µM (inactive). Also, the GI50 with NCI-H226 was 97.9 µM (inactive); with SW-620 it was > 100 µM (inactive).
As to `CCC(=O)C(C)C(=O)C(=O)C(=O)OC` (centres undefined), the GI50 with HCT-15 is over 55.8 µM; in the assay on TK-10, > 100 µM (inactive); in the assay with M14, > 100 µM (inactive); in the assay on NCI-H23 it was > 100 µM (inactive); in the assay with SF-268, > 100 µM (inactive); with SK-MEL-5 it was > 100 µM (inactive). Moreover, the GI50 with MOLT-4 is > 51.4 µM (inactive); in the assay on CCRF-CEM, > 46.9 µM (inactive); in the assay with SK-MEL-2 it was > 100 µM (inactive); in the assay with M19-MEL it was > 100 µM (inactive); in the assay with HL-60 it was > 44.4 µM (inactive); in the assay on SK-MEL-28, > 100 µM (inactive). The GI50 in the assay on SNB-19 is > 100 µM (inactive); in the assay on OVCAR-3 it was > 100 µM (inactive); in the assay with NCI-H226 it was > 100 µM (inactive); in the assay with A549, > 100 µM (inactive); in the assay with SW-620, > 26.2 µM (inactive).
For the molecule `CCCOc1ccc(/C(Cl)=C(\C=O)c2ccc(OC)c(OC)c2)cc1OCCC`, the GI50 in the assay with HCT-15 was 5.47 µM; in the assay on TK-10, 28.1 µM (inactive); with M14, 12.7 µM (inactive); with NCI-H23 it was 3.46 µM (inactive); in the assay on SF-268, 3.73 µM (inactive); in the assay on SK-MEL-5 it was 10 µM (inactive). Further, the GI50 in the assay with MOLT-4 is 2.31 µM (inactive); in the assay with CCRF-CEM it was 3.59 µM (inactive); in the assay on SK-MEL-2, 11.6 µM (inactive); with M19-MEL, 10.5 µM (inactive); in the assay on HL-60, 1.84 µM (inactive); in the assay with SK-MEL-28 it was 7.59 µM (inactive). In addition, the GI50 is 23.1 µM (inactive) in the assay with SNB-19; 23.9 µM (inactive) with OVCAR-3; 13.2 µM (inactive) with NCI-H226; 5.43 µM (inactive) in the assay on A549; 5.13 µM (inactive) in the assay with SW-620.
As for `Brc1ccc2ns[s+]c2c1`, the GI50 in the assay on HCT-15 was 0.343 µM; with TK-10, 5.28 µM (inactive); in the assay on M14, 0.45 µM (active); with NCI-H23, 20.9 µM (inactive); in the assay on SF-268 it was 2.58 µM (inactive); in the assay on MOLT-4 it was 4.65 µM (inactive). Moreover, the GI50 with CCRF-CEM was 1.26 µM (inactive); in the assay with SK-MEL-2, 6.75 µM (inactive); with M19-MEL, 6.24 µM (inactive); with HL-60 it was 2.59 µM (inactive); with SK-MEL-28, 11.9 µM (inactive); in the assay with SNB-19, 29.9 µM (inactive). Also, the GI50 in the assay with OVCAR-3 was 29.1 µM (inactive); with NCI-H226, > 26.3 µM (inactive); with A549 it was 3.6 µM (inactive); in the assay on SW-620 it was 8.63 µM (inactive).

The record behind these values is ChEMBL document CHEMBL1201862, “PubChem BioAssay data set” (2004).
